# Like-named read-outs stand apart in the source and are kept apart here.
# Experiments:
# [1] = system: m6A in cellular mRNA of MOLM-13 cells; assay: m6A-mRNA LC-MS/MS Assay (m6A cellular assay); format: cell-based; conditions: Homo sapiens, MOLM-13, read-out: m^6A IC50
# Method in brief: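 Cells harvested, mRNA extracted and digested to single nucleosides, then analysed by LC-MS/MS. Nucleosides quantified against a standard curve from pure nucleoside standards run in the same batch. m6A level expressed as 100*(m6A/A).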
# [2] = system: MOLM-13 cells; assay: MOLM-13 48 Hour Cell Proliferation Assay; format: cell-based; conditions: Homo sapiens
# Method in brief: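 IC50 derived by 4-parameter logistic regression of CellTiter-Glo luminescence, scaled between DMSO (0% death) and staurosporine (100% death) controls. Compounds applied for 48 h at 37 °C as 10-point, 4-fold dilutions, 0.25% DMSO final, to MOLM-13 cells pre-seeded overnight in RPMI 1640 plus 10% FBS.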
# [3] = system: MOLM-13 cells; assay: MOLM-13 96 Hour Cell Proliferation Assay; format: cell-based; conditions: Homo sapiens
# Method in brief: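 MOLM-13 cells in RPMI 1640 with 10% FBS were plated overnight at 37 °C, then exposed to compound dilutions at 0.25% DMSO final for 96 h. Viability was read by CellTiter-Glo luminescence, normalised to staurosporine (100% death) and DMSO (0% death) controls, and IC50 was fitted by 4-parameter logistic regression.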
# [4] = biological target: METTL3/METTL14 (Homo sapiens, UniProt Q86U44); assay: METTL3-14 Standard Enzyme Assay (METTL3 biochemical assay)
# Sequence of METTL3/METTL14 (Q86U44 whole entry, species assumed): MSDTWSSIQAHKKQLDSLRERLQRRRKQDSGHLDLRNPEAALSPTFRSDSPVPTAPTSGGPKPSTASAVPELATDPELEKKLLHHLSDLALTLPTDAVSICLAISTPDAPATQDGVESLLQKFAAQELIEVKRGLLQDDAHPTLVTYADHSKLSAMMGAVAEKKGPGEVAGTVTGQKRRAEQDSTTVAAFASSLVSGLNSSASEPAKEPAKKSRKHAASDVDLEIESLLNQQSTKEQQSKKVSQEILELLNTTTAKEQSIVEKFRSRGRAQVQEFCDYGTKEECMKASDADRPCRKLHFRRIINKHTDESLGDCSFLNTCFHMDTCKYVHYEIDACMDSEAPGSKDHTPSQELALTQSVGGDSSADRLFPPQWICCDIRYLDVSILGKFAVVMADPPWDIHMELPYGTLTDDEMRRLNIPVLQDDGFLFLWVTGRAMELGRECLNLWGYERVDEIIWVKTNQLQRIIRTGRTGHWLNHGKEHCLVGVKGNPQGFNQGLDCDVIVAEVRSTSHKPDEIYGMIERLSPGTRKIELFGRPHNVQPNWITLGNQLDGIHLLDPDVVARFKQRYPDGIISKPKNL
# Sequence of METTL3/METTL14 (Q9HCE5 whole entry partner, species assumed): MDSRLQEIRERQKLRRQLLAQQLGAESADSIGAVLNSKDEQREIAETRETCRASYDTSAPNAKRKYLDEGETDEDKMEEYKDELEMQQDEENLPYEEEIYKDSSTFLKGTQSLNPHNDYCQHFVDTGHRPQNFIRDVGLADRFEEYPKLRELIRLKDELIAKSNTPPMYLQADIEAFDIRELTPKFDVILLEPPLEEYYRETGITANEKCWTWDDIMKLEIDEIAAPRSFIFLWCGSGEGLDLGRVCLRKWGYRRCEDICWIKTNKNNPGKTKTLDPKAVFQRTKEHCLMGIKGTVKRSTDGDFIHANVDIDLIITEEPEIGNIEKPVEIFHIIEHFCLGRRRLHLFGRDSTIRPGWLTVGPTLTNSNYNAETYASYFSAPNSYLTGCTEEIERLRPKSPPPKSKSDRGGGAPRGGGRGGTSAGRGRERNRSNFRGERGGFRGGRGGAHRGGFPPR
# Method in brief: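 Tritium transfer from ³H-SAM (100 nM) to biotinylated RNA (100 nM) captured on streptavidin flashplates and counted by scintillation. Enzyme complex (2.5 nM) with compound, 5 min preincubation, 30 min reaction at ambient temperature, HEPES pH 7.5 buffer, stopped by excess unlabeled SAM.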
# [5] = METTL3 biochemical assay; read-out: METTL3 IC50
# [6] = read-out: METTL3 IC50; METTL3 biochemical assay
SMILES,IC50 [1] [µM],IC50 [2] [µM],"IC50 ([3]; MOLM-13, 96 h) [µM]","IC50 [4, 5] [µM]",IC50 [3] [µM],"IC50 [4, 6] [µM]"
CNc1ccc2ccc(CC[C@H]3O[C@@H](n4cc(C5CCCC5)c5c(N)ncnc54)[C@H](O)[C@@H]3O)cc2n1 [I-39],1 to 10,1 to 10,< 1,< 0.01,,
CNc1ccc2ccc(OC[C@H]3O[C@@H](n4cc(CC5CCCC5)c5c(N)ncnc54)[C@H](O)[C@@H]3O)cc2n1 [I-23],1 to 10,> 10,,< 0.01,,
"CNc1ccc2ccc(OC[C@H]3O[C@@H](n4cc(C5CCCC5)c5c(N)ncnc54)[C@H](O)[C@@H]3O)cc2n1 [I-33, (2R,3R,4S,5R)-2-(4-amino-5-cyclopentyl-7H-pyrrolo[2,3-d]pyrimidin-7-yl)-5-(((2-(methylamino)quinolin-7-yl)oxy)methyl)tetrahydrofuran-3,4-diol]",< 1,1 to 10,< 1,< 0.01,,
CNc1ccc2ccc(OC[C@H]3O[C@@H](n4cc(-c5ccn(C)n5)c5c(N)ncnc54)[C@@H](F)[C@@H]3O)cc2n1 [I-12],< 1,< 1,,,< 1,< 0.01
CNc1ccc2ccc(OC[C@H]3O[C@@H](n4cc(Br)c5c(N)ncnc54)[C@H](O)[C@@H]3O)cc2n1 [I-73],1 to 10,1 to 10,< 1,< 0.01,,
CCNc1ccc2ccc(OC[C@H]3O[C@@H](n4cc(-c5cn(C)cn5)c5c(N)ncnc54)[C@@H](F)[C@@H]3O)cc2n1 [I-10],1 to 10,1 to 10,,,< 1,< 0.01
CNc1ccc2ccc(OC[C@H]3O[C@@H](n4cc(Cl)c5c(N)ncnc54)[C@H](O)[C@@H]3O)cc2n1 [I-70],1 to 10,1 to 10,< 1,< 0.01,,
CNc1ccc2ccc(OC[C@H]3O[C@@H](n4cc(C5CC5)c5c(N)ncnc54)[C@@H](F)[C@@H]3O)cc2n1 [I-29],1 to 10,< 1,< 1,< 0.01,,
CNc1ccc2ccc(OC[C@H]3O[C@@H](n4cc(CC5CC5)c5c(N)ncnc54)[C@@H](F)[C@@H]3O)cc2n1 [I-36],1 to 10,1 to 10,< 1,< 0.01,,
Cn1ccc(-c2cn([C@@H]3O[C@H](COc4ccc5ccc(N6CCC6)nc5c4)[C@@H](O)[C@@H]3F)c3ncnc(N)c23)n1 [I-149],< 1,< 1,< 1,,,< 0.01

# — patent publication US20230027361A1, “METTL3 MODULATORS” (priority 2019, published 2023)
